Patent US20110313032A1, “COMPETITIVE INHIBITORS OF TYPE II DEHYDROQUINASE ENZYME” (priority 2008, published 2011)
Where two headings read alike, the source gives them in different places.

Legend:
[1] = target: type II dehydroquinase from Mycobacterium tuberculosis (Mycobacterium tuberculosis, UniProt P9WPX7); test: biochemical
Description: (§1) Effect of compounds of formula I of the invention on the catalytic activity of the type II dehydroquinase from various sources. The inhibitory potency of compounds I of the invention against type II dehydroquinases from Mycobacterium tuberculoris, Streptomyces coelicolor and Helicobacter pylori were assayed as it is described in the following articles: 1) Sanchez-Sixto, C.; Prazeres, V. F. V.; Castedo, L.; Lamb, H.; Hawkins, A. R.; Gonzalez-Bello, C. J. Med. Chem. 2005, 48, 4871; 2) Prazeres, V. F. V.; Sanchez-Sixto, C.; Castedo, L.; Lamb, H.; Hawkins, A. R.; Riboldi-Tunnicliffe; Coggins, J. R.; Lapthorn, A. J.; González-Bello, C. Chem Med Chem 2007, 2, 194; and 3) Sanchez-Sixto, C.; Prazeres, V. F. V.; Castedo, L.; S. W. Suh, Lamb, H.; Hawkins, A. R.; Canada, F. J.; Jiménez-Barbero, J.; González-Bello, C. Chem Med Chem 2008, 3, 756.

[2] = target: T1, type II dehydroquinase from Helicobacter pylori (Helicobacter pylori, UniProt Q48255); test: Inhibition of type II dehydroquinase from Helicobacter pylori (Ki); format: biochemical
T1 sequence (Q48255 1-167): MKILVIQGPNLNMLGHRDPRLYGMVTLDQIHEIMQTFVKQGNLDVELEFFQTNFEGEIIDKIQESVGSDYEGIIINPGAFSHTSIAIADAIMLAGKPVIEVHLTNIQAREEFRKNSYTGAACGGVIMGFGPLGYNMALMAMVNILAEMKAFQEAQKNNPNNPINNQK
Description: as §1

[3] = target: type II dehydroquinase from Streptomyces coelicolor (Streptomyces coelicolor, UniProt P15474); test: Inhibition of type II dehydroquinase from Streptomyces coelicolor (Ki); format: biochemical
Sequence of type II dehydroquinase from Streptomyces coelicolor (P15474 whole entry): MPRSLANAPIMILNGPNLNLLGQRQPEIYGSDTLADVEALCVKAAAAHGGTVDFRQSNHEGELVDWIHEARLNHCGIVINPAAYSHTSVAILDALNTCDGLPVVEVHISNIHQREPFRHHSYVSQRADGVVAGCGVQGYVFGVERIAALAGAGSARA
Description: as §1

[4] = pH = 7.0, 25° C., 50 mM Tris•HOAc, read-out: Inhibition constants Ki, M. tuberculosis
[5] = pH = 7.0, 25° C., 50 mM Tris•HCl, read-out: Inhibition constants Ki, H. pylori
[6] = Inhibition constants Ki, S. coelicolor, pH = 7.0, 25° C., 50 mM Tris•HCl
[7] = Inhibition constants Ki, M. tuberculosis, pH = 7.0, 25° C., 50 mM Tris•HOAc
[8] = Inhibition constants Ki, H. pylori, pH = 7.0, 25° C., 50 mM Tris•HCl
[9] = pH = 7.0, 25° C., 50 mM Tris•HCl, read-out: Inhibition constants Ki, S. coelicolor
[10] = inhibition constants against Mycobacterium tuberculosis

Sequence of type II dehydroquinase from Mycobacterium tuberculosis (P9WPX7 whole entry): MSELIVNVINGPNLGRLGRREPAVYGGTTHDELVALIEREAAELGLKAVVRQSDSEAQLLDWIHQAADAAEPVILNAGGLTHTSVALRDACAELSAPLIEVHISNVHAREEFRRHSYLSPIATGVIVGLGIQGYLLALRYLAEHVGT

| SMILES | Ki [2, 5] | Ki [3, 6] | Ki [1, 7] | Ki [3, 9] | other results |
| --- | --- | --- | --- | --- | --- |
| C=CC[C@H]1C(=O)[C@@H](O)[C@H](O)C[C@]1(O)C(=O)O [(2R)-Ia-1, (2R)-2-allyl-3-dehydroquinic acid] | 9400 nM | 10200 nM |  |  | Ki [1, 4]: 760 nM |
| C/C=C/c1cc2c(s1)[C@@H](O)[C@H](O)C[C@]2(O)C(=O)O [Ic-4, (4R, 6R, 7S)-4,6,7-trihydroxy-2-[(E)-prop-1-enyl]-4,5,6,7-tetrahydrobenzo[b]thiophen-4-carboxylic acid] |  |  | 97 nM | 93 nM | Ki [2, 8]: 350 nM |
| COC(=O)[C@@]1(O)C[C@@H](O)[C@H](O)c2sc(C)cc21 |  |  |  |  | melting point: 87 to 92 °C |
| C=C(c1ccccc1)c1cc2c(s1)[C@@H](O)[C@H](O)C[C@]2(O)C(=O)O [Ic-10, (4R,6R,7S)-4,6,7-trihydroxy-2-(1-phenylvinyl)-4,5,6,7-tetrahydro-benzo[b]thiophen-4-carboxylic acid] |  |  |  | 4650 nM | Ki [2, 8]: 20500 nM |
| O=C(O)[C@]1(O)C=C(OCc2cc3ccccc3s2)[C@@H](O)[C@H](O)C1 [Ib-1, Sodium (1R, 4S, 5R)-3-(benzo[b]thiophen-2-yl)methoxy-1,4,5-trihydroxycyclohex-2-en-1-carboxylate] | 160 nM |  |  | 0.48 nM | Ki [1, 10]: 3.2 nM; Ki ([3]; read-out: affinities in the case of S. coelicolor): 0.48 nM |
| O=C1C(O)C(O)CC(O)(C(=O)O)C1Cc1c(F)c(F)c(F)c(F)c1F (single isomer, unassigned) [(2S)-Ia-6] |  | 6.5 nM | 74 nM |  |  |
| Cc1ccc2sc(COC3=C[C@@](O)(C(=O)O)C[C@@H](O)[C@@H]3O)cc2c1 [Ib-3, Sodium (1R, 4S, 5R)-1,4,5-trihydroxy-3-(5-methylbenzo[b]thiophen-2-yl)methoxycyclohex-2-en-1-carboxylate] | 97 nM | 2.4 nM | 40 nM |  |  |
| O=C([O-])[C@@]1(O)C[C@@H](O)[C@H](O)C(OCc2ccc3sccc3c2)=C1Cc1cccs1.[Na+] [Ib-13, Sodium (1R,4S,5R)-1,4,5-trihydroxy-3-(benzo[b]thiophen-5-yl)methoxy-2-(thien-2-yl)methylcyclohex-2-en-1-carboxylate] |  | 280 nM |  |  | times more effective than the 2,3-dehydroquinic acid, H. pylori ([2]; Ki ratio): 16.190 times; times more affinity with respect of the natural substrate, H. pylori ([2]; Km of substrate / Ki): about 21.000 times; Ki ([2]; read-out: affinities in the case of H. pylori): 21 nM |
| O=C([O-])[C@@]1(O)C[C@@H](O)[C@H](O)C(OCc2ccc3ccccc3c2)=C1Cc1ccc2ccccc2c1.[Na+] (hydrate or solvate) [Ib-11, Sodium (1R,4S,5R)-1,4,5-trihydroxy-3-(naphth-2-yl)methoxy-2-(naphth-2-yl)methylcyclohex-2-en-1-carboxylate] |  |  |  |  | melting point: 184 to 187 °C |
| O=C1C(O)C(O)CC(O)(C(=O)O)C1Cc1c(F)c(F)c(F)c(F)c1F (single isomer, unassigned) [(2R)-Ia-6] | 2600 nM | 242 nM | 47 nM |  |  |
| Cc1ccc2sc(COC3=C(Cc4cc5cc(C)ccc5s4)[C@@](O)(C(=O)O)C[C@@H](O)[C@@H]3O)cc2c1 [Ib-4, Sodium (1R, 4S, 5R)-1,4,5-trihydroxy-3-(5-methylbenzo[b]thiophen-2-yl)methoxy-2-(5-methylbenzo[b]thiophen-2-yl)methylcyclohex-2-en-1-carboxylate] | 70 nM | 13 nM |  |  | Ki [1, 4]: 190 nM |
| O=C(O)[C@@]1(O)C[C@@H](O)[C@H](O)C(OCc2cccs2)=C1Cc1cccs1 [Ib-8] | 15000 nM |  |  | 140 nM |  |
| Cc1cc2c(s1)[C@@H](O)[C@H](O)C[C@]2(O)C(=O)O [Ic-2, (4R, 6R, 7S)-4,6,7-trihydroxy-2-methyl-4,5,6,7-tetrahydrobenzo[b]thiophen-4-carboxylic acid] |  |  | 400 nM | 3150 nM | Ki [2, 8]: 1600 nM |
| O=C(O)[C@@]1(O)C[C@@H](O)[C@H](O)C(OCc2ccc3ccccc3c2)=C1Cc1ccc2ccccc2c1 [Ib-11, Sodium (1R,4S,5R)-1,4,5-trihydroxy-3-(naphth-2-yl)methoxy-2-(naphth-2-yl)methylcyclohex-2-en-1-carboxylate] |  |  |  | 32 nM |  |
| C=C(C)c1cc2c(s1)[C@@H](O)[C@H](O)C[C@]2(O)C(=O)O [Ic-5] |  |  | 860 nM | 1880 nM | Ki [2, 8]: 38000 nM |
| COc1ccc(CC2C(=O)C(O)C(O)CC2(O)C(=O)O)cc1 (single isomer, unassigned) [(2R)-Ia-5] | 170 nM | 34 nM |  |  | times more effective than 2,3-dehydroquinic acid, M. tuberculosis ([1]; Ki ratio): 8000 times; times more affinity with respect of the natural substrate, M. tuberculosis ([1]; Km of substrate / Ki): 1600 times; Ki [1, 10]: 25 nM |
| O=C1C(O)C(O)CC(O)(C(=O)O)C1Cc1ccc2sccc2c1 (single isomer, unassigned) [(2R)-Ia-7] | 160 nM | 4 nM | 29 nM |  |  |
| C=CCC1=C(OCc2cc3ccccc3s2)[C@@H](O)[C@H](O)C[C@]1(O)C(=O)O [Ib-5, Sodium (1R, 4S, 5R)-2-allyl-3-(benzo[b]thiophen-2-yl)methoxy-1,4,5-tri-hydroxycyclohex-2-en-1-carboxylate] | 1100 nM | 15 nM |  |  | Ki [1, 4]: 1240 nM |
| O=C(O)C1(O)CC(O)C(O)C(OCc2cc3ccccc3s2)=C1Cc1cc2ccccc2s1 (centres unmarked) [Ib-2] | 140 nM | 2.8 nM | 4.25 nM |  |  |
| Cc1ccc(CC2C(=O)C(O)C(O)CC2(O)C(=O)O)cc1 (single isomer, unassigned) [(2R)-Ia-4] | 250 nM | 22 nM | 89 nM |  |  |
| C=CC[C@@H]1C(=O)[C@@H](O)[C@H](O)C[C@]1(O)C(=O)O [(2S)-Ia-1, (2S)-2-allyl-3-dehydroquinic acid] | 21500 nM | 6700 nM |  |  | Ki [1, 4]: 1850 nM |
| O=C(O)[C@@]1(O)C[C@@H](O)[C@H](O)c2sc(CCc3ccccc3)cc21 [Ic-12, (4R,6R,7S)-4,6,7-trihydroxy-2-phenethyl-4,5,6,7-tetrahydrobenzo[b]thiophene-4-carboxylic acid] |  |  |  | 46 nM | Ki [2, 8]: 1700 nM |
| O=C(O)[C@]1(O)C=C(OCc2ccc3ccccc3c2)[C@@H](O)[C@H](O)C1 [Ib-.10, Sodium (1R,4S,5R)-1,4-trihydroxy-3-(2-naphyl)methoxycyclohex-2-en-1-carboxylate] |  |  |  | < 0.26 nM |  |
| O=C(O)[C@]1(O)C=C(OCc2ccc3sccc3c2)[C@@H](O)[C@H](O)C1 [Ib-7, Sodium (1R,4S,5R)-1,4,5-trihydroxy-3[(benzo[b]thiophen-5-yl)methoxy]cyclohex-2-en-1-carboxylate] | 166 nM | 0.3 nM |  |  | Ki [1, 4]: 31 nM |
| C=Cc1cc2c(s1)[C@@H](O)[C@H](O)C[C@]2(O)C(=O)O [Ic-3, (4R, 6R, 7S)-4,6,7-trihydroxy-2-vinyl-4,5,6,7-tetrahydrobenzo[b]thiophen-4-carboxylic acid] |  |  | 52 nM | 810 nM | Ki [2, 8]: 1250 nM |
| CCCC1C(=O)C(O)C(O)CC1(O)C(=O)O [(2R)-Ia-2, (2R)-2-propyl-3-dehydroquinic acid] | 20000 nM | 76000 nM |  |  | Ki [1, 4]: 1700 nM |
| CCCc1cc2c(s1)[C@@H](O)[C@H](O)C[C@]2(O)C(=O)O [Ic-13, (4R,6R,7S)-4,6,7-trihydroxy-2-propyl-4,5,6,7-tetrahyclrobenzo[b]thiophene-4-carboxylic acid] |  |  |  | 22 nM | Ki [2, 8]: 120 nM |
| O=C(O)[C@@]1(O)C[C@@H](O)[C@H](O)C(OCc2cccs2)=C1Cc1cc2ccccc2s1 [Ib-12, Sodium (1R,4S,5R)-1,4,5-trihydroxy-3-(thien-2-yl)methoxy-2-(benzo[b]thiophen-2-yl)methylcyclohex-2-en-1-carboxylate] | 46 nM | 279 nM |  |  |  |
